Paper PMC3428805 (Journal of Medicinal Chemistry, 2012)

Assays:
K562 cells = assay: cells; assay type: cell-based; conditions: Homo sapiens, K562, 72 h, read-out: K562 cells, GI50
Kif5a = biological target: T1, Kif5a (Homo sapiens, UniProt Q12840); assay: Kinesin panel, basal and MT-stimulated ATPase, Kif5a; assay type: biochemical; conditions: data not shown
T1 sequence (Q12840 1-1032): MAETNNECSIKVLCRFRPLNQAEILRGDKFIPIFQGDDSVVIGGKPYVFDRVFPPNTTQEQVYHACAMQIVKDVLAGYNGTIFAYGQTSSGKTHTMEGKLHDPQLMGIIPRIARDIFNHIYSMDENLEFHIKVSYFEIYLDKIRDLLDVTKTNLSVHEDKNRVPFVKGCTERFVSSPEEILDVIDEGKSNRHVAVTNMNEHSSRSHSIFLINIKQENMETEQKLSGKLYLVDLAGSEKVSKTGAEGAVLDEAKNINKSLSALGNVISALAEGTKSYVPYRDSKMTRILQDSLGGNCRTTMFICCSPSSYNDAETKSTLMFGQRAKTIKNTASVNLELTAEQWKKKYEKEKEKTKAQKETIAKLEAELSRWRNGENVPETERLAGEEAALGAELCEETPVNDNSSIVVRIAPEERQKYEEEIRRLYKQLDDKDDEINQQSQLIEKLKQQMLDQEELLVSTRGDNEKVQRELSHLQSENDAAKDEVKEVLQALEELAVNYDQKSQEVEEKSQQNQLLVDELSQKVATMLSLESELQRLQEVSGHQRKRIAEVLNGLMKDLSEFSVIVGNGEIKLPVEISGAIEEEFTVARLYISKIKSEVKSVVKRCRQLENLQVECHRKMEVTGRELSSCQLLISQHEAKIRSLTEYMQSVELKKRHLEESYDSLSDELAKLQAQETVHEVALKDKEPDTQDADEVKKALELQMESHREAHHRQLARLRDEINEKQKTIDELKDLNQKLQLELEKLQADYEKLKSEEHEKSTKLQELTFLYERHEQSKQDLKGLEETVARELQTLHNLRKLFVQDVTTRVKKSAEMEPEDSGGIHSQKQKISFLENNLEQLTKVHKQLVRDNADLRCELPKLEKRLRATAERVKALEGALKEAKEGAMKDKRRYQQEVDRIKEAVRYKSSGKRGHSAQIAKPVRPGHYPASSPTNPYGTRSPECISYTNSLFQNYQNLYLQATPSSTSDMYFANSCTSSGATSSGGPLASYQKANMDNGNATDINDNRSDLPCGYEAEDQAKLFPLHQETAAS

CENP-E = CENP-E (Homo sapiens, UniProt Q02224); assay: Kinesin panel, basal and MT-stimulated ATPase, CENP-E; assay type: biochemical; conditions: data not shown
CENP-E, sequence (Q02224 whole entry): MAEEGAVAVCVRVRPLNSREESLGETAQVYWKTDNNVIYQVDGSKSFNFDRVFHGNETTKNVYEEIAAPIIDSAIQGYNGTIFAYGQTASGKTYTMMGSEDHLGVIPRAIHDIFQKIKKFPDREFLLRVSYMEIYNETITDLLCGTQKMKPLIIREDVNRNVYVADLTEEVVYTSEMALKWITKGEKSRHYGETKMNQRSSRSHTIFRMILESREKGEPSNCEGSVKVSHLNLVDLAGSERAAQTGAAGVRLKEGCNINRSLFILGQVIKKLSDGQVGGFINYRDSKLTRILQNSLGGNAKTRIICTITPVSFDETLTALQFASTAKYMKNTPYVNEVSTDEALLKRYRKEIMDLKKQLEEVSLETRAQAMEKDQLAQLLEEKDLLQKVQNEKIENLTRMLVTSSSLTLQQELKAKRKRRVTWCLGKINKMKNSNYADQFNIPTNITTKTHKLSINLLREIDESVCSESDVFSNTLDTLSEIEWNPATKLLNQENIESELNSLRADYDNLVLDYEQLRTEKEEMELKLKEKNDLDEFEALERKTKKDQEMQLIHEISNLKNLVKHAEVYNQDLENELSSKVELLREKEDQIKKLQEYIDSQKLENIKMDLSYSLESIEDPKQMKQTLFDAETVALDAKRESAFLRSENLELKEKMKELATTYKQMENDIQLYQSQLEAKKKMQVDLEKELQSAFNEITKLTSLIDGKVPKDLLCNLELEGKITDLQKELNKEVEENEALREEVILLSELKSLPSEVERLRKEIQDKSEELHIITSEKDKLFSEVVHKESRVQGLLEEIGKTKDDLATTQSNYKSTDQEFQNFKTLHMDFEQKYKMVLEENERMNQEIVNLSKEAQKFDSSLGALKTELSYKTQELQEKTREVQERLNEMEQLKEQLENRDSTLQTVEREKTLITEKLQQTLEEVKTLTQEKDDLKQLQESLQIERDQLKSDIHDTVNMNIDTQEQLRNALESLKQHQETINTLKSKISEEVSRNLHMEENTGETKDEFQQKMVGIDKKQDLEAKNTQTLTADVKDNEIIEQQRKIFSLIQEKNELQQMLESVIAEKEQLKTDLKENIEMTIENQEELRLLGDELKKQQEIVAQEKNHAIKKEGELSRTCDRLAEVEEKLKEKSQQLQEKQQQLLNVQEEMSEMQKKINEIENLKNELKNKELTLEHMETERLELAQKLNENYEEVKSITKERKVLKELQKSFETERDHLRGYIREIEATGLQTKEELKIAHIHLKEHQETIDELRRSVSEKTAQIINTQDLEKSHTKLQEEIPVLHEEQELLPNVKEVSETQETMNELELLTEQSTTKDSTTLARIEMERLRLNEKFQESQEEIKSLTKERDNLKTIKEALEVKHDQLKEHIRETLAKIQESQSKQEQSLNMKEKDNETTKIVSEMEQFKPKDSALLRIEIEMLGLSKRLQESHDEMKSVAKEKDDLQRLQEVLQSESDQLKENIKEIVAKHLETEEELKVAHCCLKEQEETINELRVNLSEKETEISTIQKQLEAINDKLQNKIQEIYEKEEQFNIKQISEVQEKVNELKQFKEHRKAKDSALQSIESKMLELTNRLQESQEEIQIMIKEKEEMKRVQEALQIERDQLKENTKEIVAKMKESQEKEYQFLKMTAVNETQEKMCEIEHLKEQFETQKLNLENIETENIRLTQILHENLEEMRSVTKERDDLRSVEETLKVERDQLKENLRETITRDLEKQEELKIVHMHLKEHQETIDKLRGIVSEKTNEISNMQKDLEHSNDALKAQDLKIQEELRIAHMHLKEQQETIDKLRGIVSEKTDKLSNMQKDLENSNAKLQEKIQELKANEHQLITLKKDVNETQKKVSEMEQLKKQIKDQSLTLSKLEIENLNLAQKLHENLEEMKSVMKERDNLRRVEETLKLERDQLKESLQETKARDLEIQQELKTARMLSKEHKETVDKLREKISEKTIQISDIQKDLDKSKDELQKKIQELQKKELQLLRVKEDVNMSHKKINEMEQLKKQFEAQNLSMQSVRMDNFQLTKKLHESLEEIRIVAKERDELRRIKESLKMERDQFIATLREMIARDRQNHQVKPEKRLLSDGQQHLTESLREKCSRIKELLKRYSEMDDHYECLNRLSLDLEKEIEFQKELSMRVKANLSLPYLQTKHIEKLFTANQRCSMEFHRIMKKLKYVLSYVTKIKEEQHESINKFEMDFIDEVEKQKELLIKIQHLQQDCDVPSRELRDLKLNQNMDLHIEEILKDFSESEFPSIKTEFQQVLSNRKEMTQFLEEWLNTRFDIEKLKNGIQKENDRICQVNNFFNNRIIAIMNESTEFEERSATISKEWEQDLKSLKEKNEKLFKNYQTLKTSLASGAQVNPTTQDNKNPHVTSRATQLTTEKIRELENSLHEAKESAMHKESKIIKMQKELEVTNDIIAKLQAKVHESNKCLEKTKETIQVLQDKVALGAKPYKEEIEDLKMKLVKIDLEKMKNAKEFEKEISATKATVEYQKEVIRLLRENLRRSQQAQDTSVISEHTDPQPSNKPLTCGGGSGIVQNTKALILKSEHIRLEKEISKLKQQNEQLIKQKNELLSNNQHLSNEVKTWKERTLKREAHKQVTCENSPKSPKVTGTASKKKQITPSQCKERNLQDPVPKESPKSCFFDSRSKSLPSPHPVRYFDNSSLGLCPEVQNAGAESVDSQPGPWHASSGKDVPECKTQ

Kif7 = biological target: T2, Kif7 (Homo sapiens, UniProt Q2M1P5); assay: Kinesin panel, basal and MT-stimulated ATPase, Kif7; assay type: biochemical; conditions: data not shown
T2 sequence (Q2M1P5 1-1343): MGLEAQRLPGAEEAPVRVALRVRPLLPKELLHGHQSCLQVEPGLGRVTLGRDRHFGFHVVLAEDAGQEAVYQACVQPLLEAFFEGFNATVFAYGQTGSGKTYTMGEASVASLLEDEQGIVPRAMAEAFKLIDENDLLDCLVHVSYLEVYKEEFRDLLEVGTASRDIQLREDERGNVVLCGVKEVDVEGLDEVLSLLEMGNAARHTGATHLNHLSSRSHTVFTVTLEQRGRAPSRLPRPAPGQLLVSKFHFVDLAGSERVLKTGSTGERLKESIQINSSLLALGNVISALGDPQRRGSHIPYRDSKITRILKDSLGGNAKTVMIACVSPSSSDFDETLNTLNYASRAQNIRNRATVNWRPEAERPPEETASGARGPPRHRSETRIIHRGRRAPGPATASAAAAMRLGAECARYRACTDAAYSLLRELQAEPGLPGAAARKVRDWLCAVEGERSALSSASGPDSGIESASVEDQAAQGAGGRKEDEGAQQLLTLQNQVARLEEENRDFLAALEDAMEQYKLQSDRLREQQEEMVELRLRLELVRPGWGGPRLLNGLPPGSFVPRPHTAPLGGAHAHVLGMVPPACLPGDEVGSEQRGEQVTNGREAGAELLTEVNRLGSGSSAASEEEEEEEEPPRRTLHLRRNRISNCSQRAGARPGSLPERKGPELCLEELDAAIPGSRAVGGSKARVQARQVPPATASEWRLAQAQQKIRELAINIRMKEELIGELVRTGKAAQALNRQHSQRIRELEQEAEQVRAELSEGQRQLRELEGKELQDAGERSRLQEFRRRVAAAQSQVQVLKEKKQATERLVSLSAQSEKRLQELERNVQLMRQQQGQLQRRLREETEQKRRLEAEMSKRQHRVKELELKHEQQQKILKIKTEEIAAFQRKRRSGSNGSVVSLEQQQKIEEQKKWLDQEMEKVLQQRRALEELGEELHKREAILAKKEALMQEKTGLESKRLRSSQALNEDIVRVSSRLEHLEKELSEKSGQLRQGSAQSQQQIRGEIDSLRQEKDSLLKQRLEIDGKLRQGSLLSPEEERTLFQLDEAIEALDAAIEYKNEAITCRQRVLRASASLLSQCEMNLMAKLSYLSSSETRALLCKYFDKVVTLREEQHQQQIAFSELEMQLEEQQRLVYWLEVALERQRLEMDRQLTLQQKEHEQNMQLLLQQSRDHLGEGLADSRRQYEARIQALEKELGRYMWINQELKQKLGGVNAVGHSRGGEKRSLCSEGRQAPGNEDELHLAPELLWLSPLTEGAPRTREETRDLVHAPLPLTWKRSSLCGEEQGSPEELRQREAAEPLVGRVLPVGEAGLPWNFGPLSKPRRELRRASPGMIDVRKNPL

MPP1 = MPP1 (Homo sapiens, UniProt Q96Q89); assay: Kinesin panel, basal and MT-stimulated ATPase, MPP1; assay type: biochemical; conditions: data not shown
MPP1, sequence (Q96Q89 whole entry): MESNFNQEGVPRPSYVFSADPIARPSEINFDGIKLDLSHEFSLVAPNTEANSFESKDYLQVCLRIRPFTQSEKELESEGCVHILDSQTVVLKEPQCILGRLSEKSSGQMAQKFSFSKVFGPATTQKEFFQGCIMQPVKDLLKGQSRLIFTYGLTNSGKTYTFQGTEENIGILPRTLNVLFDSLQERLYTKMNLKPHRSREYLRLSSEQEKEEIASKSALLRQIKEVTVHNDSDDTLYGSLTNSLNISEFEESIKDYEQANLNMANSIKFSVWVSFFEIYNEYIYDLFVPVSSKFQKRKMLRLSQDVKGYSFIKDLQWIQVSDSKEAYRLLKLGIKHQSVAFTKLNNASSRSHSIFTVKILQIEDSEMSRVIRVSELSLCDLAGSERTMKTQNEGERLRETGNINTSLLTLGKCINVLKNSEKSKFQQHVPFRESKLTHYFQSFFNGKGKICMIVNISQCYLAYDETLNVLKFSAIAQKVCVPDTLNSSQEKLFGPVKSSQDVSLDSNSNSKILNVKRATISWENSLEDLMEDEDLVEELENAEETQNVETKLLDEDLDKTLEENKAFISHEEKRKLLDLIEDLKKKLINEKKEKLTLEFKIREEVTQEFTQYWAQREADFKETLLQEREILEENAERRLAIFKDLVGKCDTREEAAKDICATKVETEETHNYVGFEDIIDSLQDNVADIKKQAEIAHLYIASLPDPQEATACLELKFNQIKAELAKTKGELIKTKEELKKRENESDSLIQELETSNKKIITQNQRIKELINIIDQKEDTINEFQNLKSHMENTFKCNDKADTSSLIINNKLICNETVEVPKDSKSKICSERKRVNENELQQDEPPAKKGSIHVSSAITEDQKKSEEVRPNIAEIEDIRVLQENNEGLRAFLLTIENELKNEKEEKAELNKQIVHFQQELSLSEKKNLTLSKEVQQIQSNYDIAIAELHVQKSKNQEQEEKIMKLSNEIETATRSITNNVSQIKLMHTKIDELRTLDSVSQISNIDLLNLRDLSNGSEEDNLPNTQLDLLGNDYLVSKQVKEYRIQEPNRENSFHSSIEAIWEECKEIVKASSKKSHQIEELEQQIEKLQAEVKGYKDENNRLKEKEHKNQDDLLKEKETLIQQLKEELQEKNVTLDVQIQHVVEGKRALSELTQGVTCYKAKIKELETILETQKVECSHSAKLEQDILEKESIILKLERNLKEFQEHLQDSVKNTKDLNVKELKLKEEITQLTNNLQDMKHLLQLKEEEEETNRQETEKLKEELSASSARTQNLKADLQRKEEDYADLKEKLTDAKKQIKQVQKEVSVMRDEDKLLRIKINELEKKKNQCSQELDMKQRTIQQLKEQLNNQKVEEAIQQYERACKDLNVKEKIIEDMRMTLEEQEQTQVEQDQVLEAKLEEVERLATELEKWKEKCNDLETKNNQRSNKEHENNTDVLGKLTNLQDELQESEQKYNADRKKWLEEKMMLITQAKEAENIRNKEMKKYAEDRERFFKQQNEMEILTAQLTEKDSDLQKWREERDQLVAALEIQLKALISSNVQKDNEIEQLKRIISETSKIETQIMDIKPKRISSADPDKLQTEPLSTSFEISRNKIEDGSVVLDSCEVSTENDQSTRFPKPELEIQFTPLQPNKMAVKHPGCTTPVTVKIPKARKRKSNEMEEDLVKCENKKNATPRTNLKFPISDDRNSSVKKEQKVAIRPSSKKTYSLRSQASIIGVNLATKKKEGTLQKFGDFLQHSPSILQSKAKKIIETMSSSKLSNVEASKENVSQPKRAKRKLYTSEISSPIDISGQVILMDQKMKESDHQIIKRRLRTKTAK

MKLP-2 = biological target: T3, MKLP-2 (Homo sapiens, UniProt O95235); assay: Kinesin panel, basal and MT-stimulated ATPase, MKLP-2; assay type: biochemical; conditions: data not shown
T3 sequence (O95235 1-890): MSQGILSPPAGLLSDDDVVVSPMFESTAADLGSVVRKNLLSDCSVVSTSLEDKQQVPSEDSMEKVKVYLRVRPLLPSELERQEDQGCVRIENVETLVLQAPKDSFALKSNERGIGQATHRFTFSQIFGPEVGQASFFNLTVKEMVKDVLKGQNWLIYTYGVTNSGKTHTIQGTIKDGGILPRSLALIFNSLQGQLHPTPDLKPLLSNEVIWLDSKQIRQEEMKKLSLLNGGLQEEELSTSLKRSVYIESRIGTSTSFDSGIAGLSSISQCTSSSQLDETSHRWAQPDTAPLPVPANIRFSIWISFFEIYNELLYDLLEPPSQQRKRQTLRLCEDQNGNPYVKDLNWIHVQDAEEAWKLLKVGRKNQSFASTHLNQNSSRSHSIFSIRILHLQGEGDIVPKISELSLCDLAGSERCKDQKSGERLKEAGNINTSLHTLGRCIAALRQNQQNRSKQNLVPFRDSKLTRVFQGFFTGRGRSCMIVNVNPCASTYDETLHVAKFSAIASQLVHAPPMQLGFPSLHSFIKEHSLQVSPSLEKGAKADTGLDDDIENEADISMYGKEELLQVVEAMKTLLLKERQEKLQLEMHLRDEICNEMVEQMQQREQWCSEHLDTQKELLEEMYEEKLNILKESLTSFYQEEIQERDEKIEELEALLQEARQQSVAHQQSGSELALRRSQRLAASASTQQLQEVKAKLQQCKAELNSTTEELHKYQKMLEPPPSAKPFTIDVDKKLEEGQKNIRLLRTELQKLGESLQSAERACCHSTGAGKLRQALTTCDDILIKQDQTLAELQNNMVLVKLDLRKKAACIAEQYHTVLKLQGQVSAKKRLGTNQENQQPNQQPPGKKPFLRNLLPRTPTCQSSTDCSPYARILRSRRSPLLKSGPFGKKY

[1] = Human microsomal stability; conditions: human microsomes, 3 µM
[2] = Human plasma protein binding, equilibrium dialysis; conditions: 50%
[3] = Mouse microsomal stability; conditions: mouse microsomes, 3 µM

| SMILES | GI50 (K562 cells) [nM] | inhibition of basal and MT-stimulated ATPase activities, Kif5a (Kif5a) | inhibition of basal and MT-stimulated ATPase activities, CENP-E (CENP-E) | inhibition of basal and MT-stimulated ATPase activities, Kif7 (Kif7) | inhibition of basal and MT-stimulated ATPase activities, MPP1 (MPP1) | inhibition of basal and MT-stimulated ATPase activities, MKLP-2 (MKLP-2) | microsomal stability, Clint, human [1] | turbidimetric solubility pH 7.4 | recovery at 5 µM [2] [%] | microsomal stability, Clint, mice [3] |
| --- | --- | --- | --- | --- | --- | --- | --- | --- | --- | --- |
| Cc1cccc(C(CCC(N)C(=O)O)(c2ccccc2)c2ccccc2)c1 (racemic) [rac-29, 2-Amino-5-(3-methylphenyl)-5,5-diphenylpentanoic acid] | 91 ± 9 | did not observe any significant inhibition | did not observe any significant inhibition | did not observe any significant inhibition | did not observe any significant inhibition | did not observe any significant inhibition |  |  |  |  |
| Cc1cccc(C(CCCN)(c2ccccc2)c2ccccc2)c1 [compound 30, 4-(3-Methylphenyl)-4,4-diphenylbutan-1-amine] |  |  |  |  |  |  | stable | >100, >100, >100 μM | 69.1 | high microsomal clearance |
